Measured values from PMC6245477, “Discovery of a Novel CCR5 Antagonist Lead Compound Through Fragment Assembly” (Molecules, 2008).

Legend:
CCR5 = target: T1, CCR5 (Homo sapiens, UniProt P51681); assay: Calcium mobilization assay (RANTES-induced, Fluo-4 AM); format: cell-based; details: for IC50: CHO cells stably expressing CCR5 and Gα16, RANTES 30 nM, read-out: IC50 (antagonistic activity against CCR5); for effect of structural change on potency relative to compound 2: SAR statement from IC50 values
T1 construct: expressed in transfected cells
T1 sequence (P51681 whole entry): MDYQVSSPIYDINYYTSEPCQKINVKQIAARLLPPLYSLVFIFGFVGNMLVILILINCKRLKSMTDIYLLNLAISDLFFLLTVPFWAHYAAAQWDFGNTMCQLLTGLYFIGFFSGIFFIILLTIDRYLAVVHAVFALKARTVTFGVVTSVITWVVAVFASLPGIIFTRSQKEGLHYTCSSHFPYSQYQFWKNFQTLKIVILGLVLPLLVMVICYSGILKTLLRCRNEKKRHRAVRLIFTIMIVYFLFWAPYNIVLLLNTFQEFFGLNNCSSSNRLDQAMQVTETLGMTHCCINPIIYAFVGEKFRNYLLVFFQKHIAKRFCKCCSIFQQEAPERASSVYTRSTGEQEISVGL
Protocol: For the primary assay, the percent inhibitory rates of the compounds 1, 2 and 2a-l at 1 μM were measured. Except compounds 2a and 2c, the other twelve compounds were remarkably antagonist of CCR5 activity. Therefore, we determined their IC50 values (Table 1).
CHO cells stably expressing CCR5 and Gα16 were loaded with 2 μmol/L Fluo-4 AM in Hanks balanced salt solution (HBSS, containing KCl 5.4 mM, Na2HPO4 0.3 mM, KH2PO4 0.4 mM, NaHCO3 4.2 mM, CaCl2 1.3 mM, MgCl2 0.5 mM, Mg2SO4 0.6 mM, NaCl 137 mM, BSA 5 g/L, Glucose 5.6 mM, Sulfinpyrazone 250 μM, pH 7.4) at 37 °C for 45 minutes. After the cells being rinsed with the reaction buffer, 50 μL HBSS containing known antagonists (positive control), compounds of interest or DMSO (negative control, final concentration 1%) were added. After incubation at room temperature for 10 minutes, 25 μL RANTES (final concentration 30 nM) was dispensed into the well using a FlexStation II micro-plate reader (Molecular Devices, Sunnyvale, CA, USA) and intracellular calcium change was recorded with an excitation wavelength of 485 nm and emission wavelength of 525 nm. The half maximal inhibitory concentrations (IC50s) of compounds were determined with GraphPad Prism software by constructing their dose-response curves.

| SMILES | IC50 (CCR5) [µM] | fold change of IC50 compared to compound 1 (CCR5; ratio of IC50 values, vs compound 1) [fold] | melting point [°C] | effect of structural change on potency relative to compound 2 (CCR5) | fold increase in potency compared with compound 2 (CCR5; ratio of IC50 values, vs compound 2) [fold] |
| --- | --- | --- | --- | --- | --- |
| O=C(CCC(=O)N1CCN(c2ccnc3cc(Cl)ccc23)CC1)N1CCN(c2ccnc3cc(Cl)ccc23)CC1 [Compound 1, 1,4-bis(4-(7-chloroquinolin-4-yl)piperazin-1-yl)butane-1,4-dione] | 2 |  |  |  |  |
| O=C(N[C@@H](CCN1CCN(c2ccnc3cc(Cl)ccc23)CC1)c1ccccc1)C1CCC(F)(F)CC1 [Compound 2, N-((S)-3-(4-(7-Chloroquinolin-4-yl)piperazin-1-yl)-1-phenylpropyl)-4,4-difluorocyclohexanecarbox-amide] | 0.692 | 3 |  |  |  |
| O=C(N[C@@H](CCN1CCN(c2ccnc3cc(Cl)ccc23)CC1)c1ccccc1)c1ccc(F)cc1 [Compound 2a, N-((S)-3-(4-(7-Chloroquinolin-4-yl)piperazin-1-yl)-1-phenylpropyl)-4-fluorobenzamide] |  |  | 77 to 79 |  |  |
| O=C(N[C@@H](CCN1CCN(c2ccnc3cc(Cl)ccc23)CC1)c1ccccc1)C1CCCCC1 [Compound 2b, N-((S)-3-(4-(7-Chloroquinolin-4-yl)piperazin-1-yl)-1-phenylpropyl)cyclohexanecarboxamide] | 2.66 |  | 153 to 158 |  |  |
| O=C1CCC(C(=O)N[C@@H](CCN2CCN(c3ccnc4cc(Cl)ccc34)CC2)c2ccccc2)CC1 [Compound 2d, N-((S)-3-(4-(7-Chloroquinolin-4-yl)piperazin-1-yl)-1-phenylpropyl)-4-oxocyclohexanecarboxamide] | > 1 |  | 56 to 59 |  |  |
| O=C(Cc1ccccc1)N[C@@H](CCN1CCN(c2ccnc3cc(Cl)ccc23)CC1)c1ccccc1 [Compound 2e, N-((S)-3-(4-(7-Chloroquinolin-4-yl)piperazin-1-yl)-1-phenylpropyl)-2-phenylacetamide] | > 10 |  | 69 to 72 |  |  |

Other lines, results leading:

| IC50 (CCR5) [µM] | fold change of IC50 compared to compound 1 (CCR5; ratio of IC50 values, vs compound 1) [fold] | melting point [°C] | effect of structural change on potency relative to compound 2 (CCR5) | fold increase in potency compared with compound 2 (CCR5; ratio of IC50 values, vs compound 2) [fold] | SMILES |
| --- | --- | --- | --- | --- | --- |
| > 10 |  | 132 to 136 | decrease or loss of potency |  | Cc1ccc(S(=O)(=O)N[C@@H](CCN2CCN(c3ccnc4cc(Cl)ccc34)CC2)c2ccccc2)cc1 [Compound 2f, N-((S)-3-(4-(7-Chloroquinolin-4-yl)piperazin-1-yl)-1-phenylpropyl)-4-methylbenzenesulfonamide] |
| > 1 |  |  |  |  | O=C(N[C@@H](CCN1CCN(c2ncccn2)CC1)c1ccccc1)C1CCC(F)(F)CC1 [Compound 2g, N-((S)-3-(4-(Pyrimidin-2-yl)piperazin-1-yl)-1-phenylpropyl)-4,4-difluorocyclohexanecarboxamide] |
| > 10 |  |  |  |  | O=C(N[C@@H](CCN1CCN(c2ncnc3[nH]cnc23)CC1)c1ccccc1)C1CCC(F)(F)CC1 [Compound 2h, N-((S)-3-(4-(9H-Purin-6-yl)piperazin-1-yl)-1-phenylpropyl)-4,4-difluorocyclohexanecarboxamide] |
| > 10 |  |  |  |  | O=C(N[C@@H](CCN1CCN(c2ccncc2)CC1)c1ccccc1)C1CCC(F)(F)CC1 [Compound 2i, N-((S)-3-(4-(pyridin-4-yl)piperazin-1-yl)-1-phenylpropyl)-4,4-difluorocyclohexanecarboxamide] |
| 0.233 |  | 50 to 53 |  | 3 | O=C(N[C@@H](CCN1CCN(c2ccc3ccccc3n2)CC1)c1ccccc1)C1CCC(F)(F)CC1 [Compound 2j, N-((S)-3-(4-(Quinolin-2-yl)piperazin-1-yl)-1-phenylpropyl)-4,4-difluorocyclohexanecarboxamide] |
| 0.669 |  |  | no effect on potency |  | O=C(NC(CCN1CCN(c2ccnc3cc(Cl)ccc23)CC1)c1ccccc1)C1CCC(F)(F)CC1 (centres unmarked) [Compound 2k, N-(3-(4-(7-Chloroquinolin-4-yl)piperazin-1-yl)-1-phenylpropyl)-4,4-difluorocyclohexanecarboxamide] |
| > 1 |  |  | nearly leads to a loss of potency |  | O=C(C1CCC(F)(F)CC1)N1CCN(c2ccnc3cc(Cl)ccc23)CC1 [Compound 2l, (4-(7-chloroquinolin-4-yl)piperazin-1-yl)(4,4-difluorocyclohexyl)methanone] |
